Target: PRMT5/MEP50 (Homo sapiens (Human), UniProt O14744)
Experiment: PRMT5 Biochemical Assay (PRMT5/MEP50 enzyme assay on peptide substrate, 3H-SAM Flashplate)
Source text: S-adenosylmethionine (SAM), S-adenosylhomocysteine (SAH), bicine, KCl, Tween20, dimethylsulfoxide (DMSO), bovine skin gelatin (BSG), and Tris(2-carboxyethyl)phosphine hydrochloride solution (TCEP) were purchased from Sigma-Aldrich at the highest level of purity possible. ^3H-SAM was purchase from American Radiolabeled Chemicals with a specific activity of 80 Ci/mmol. 384-well streptavidin Flashplates were purchased from PerkinElmer.
Peptide representative of human histone H4 residues 1-15 was synthesized with a C-terminal linker-affinity tag motif and a C-terminal amide cap by 21st Century Biochemicals. The peptide was high high-performance liquid chromatography (HPLC) purified to greater than 95% purity and confirmed by liquid chromatography mass spectrometry (LC-MS). The sequence was Ac-[…][K-Biot]-amide (SEQ ID NO.:3).
Molecular Biology: Full-length human PRMT5 (NM_006109.3) transcript variant 1 clone was amplified from a fetal brain cDNA library, incorporating flanking 5′ sequence encoding a FLAG tag ([…]) (SEQ ID NO.:4) fused directly to Ala 2 of PRMT5. Full-length human MEP50 (NM_024102) clone was amplified from a human testis cDNA library incorporating a 5′ sequence encoding a 6-histidine tag (MHHHHHH) (SEQ ID NO.:5) fused directly to Arg 2 of MEP50. The amplified genes were sublconed into pENTR/D/TEV (Life Technologies) and subsequently transferred by Gateway™ attL×attR recombination to pDEST8 baculvirus expression vector (Life Technologies).
Recombinant baculovirus and Baculovirus-Infected Insect Cells (BIIC) were generated according to Bac-to-Bac kit instructions (Life Technologies) and Wasilko, 2006, respectively. Protein over-expression was accomplished by infecting exponentially growing Spodoptera frugiperda (SF9) cell culture at 1.2×10^6 cell/ml with a 5000 fold dilution of BIIC stock. Infections were carried out at 27° C. for 72 hours, harvested by centrifugation, and stored at −80° C. for purification.
Flag-PRMT5/6His-MeP50 was eluted with 300 mM Imidazole in the same buffer. The purity of recovered protein was 87%. Reference: Wasilko, D. J. and S. E. Lee: “TIPS: titerless infected-cells preservation and scale-up” Bioprocess J., 5 (2006), pp. 29-32.
General Procedure for PRMT5/MEP50 Enzyme Assays on Peptide Substrates.
The assays were all performed in a buffer consisting of 20 mM Bicine (pH=7.6), 1 mM TCEP, 0.005% BSG, and 0.002% Tween20, prepared on the day of use. Compounds in 100% DMSO (1 ul) were spotted into a polypropylene 384-well V-bottom plates (Greiner) using a Platemate Plus outfitted with a 384-channel head (Thermo Scientific). DMSO (1 ul) was added to Columns 11, 12, 23, 24, rows A-H for the maximum signal control and 1 ul of SAH, a known product and inhibitor of PRMT5/MEP50, was added to columns 11, 12, 23, 24, rows I-P for the minimum signal control. A cocktail (40 ul) containing the PRMT5/MEP50 enzyme and the peptide was added by Multidrop Combi (Thermo-Fisher). The compounds were allowed to incubate with PRMT5/MEP50 for 30 min at 25 degrees Celsius, then a cocktail (10 ul) containing ^3H-SAM was added to initiate the reaction (final volume=51 ul). The final concentrations of the components were as follows: PRMT5/MEP50 was 4 nM, ^3H-SAM was 75 nM, peptide was 40 nM, SAH in the minimum signal control wells was 100 uM, and the DMSO concentration was 1%. The assays were stopped by the addition of non-radioactive SAM (10 ul) to a final concentration of 600 uM, which dilutes the ^3H-SAM to a level where its incorporation into the peptide substrate is no longer detectable. 50 ul of the reaction in the 384-well polypropylene plate was then transferred to a 384-well Flashplate and the biotinylated peptides were allowed to bind to the streptavidin surface for at least 1 hour before being washed three times with 0.1% Tween20 in a Biotek ELx405 plate washer. […]

Sequence of PRMT5/MEP50 (O14744 other isoform, or with tags, fused parts or gaps): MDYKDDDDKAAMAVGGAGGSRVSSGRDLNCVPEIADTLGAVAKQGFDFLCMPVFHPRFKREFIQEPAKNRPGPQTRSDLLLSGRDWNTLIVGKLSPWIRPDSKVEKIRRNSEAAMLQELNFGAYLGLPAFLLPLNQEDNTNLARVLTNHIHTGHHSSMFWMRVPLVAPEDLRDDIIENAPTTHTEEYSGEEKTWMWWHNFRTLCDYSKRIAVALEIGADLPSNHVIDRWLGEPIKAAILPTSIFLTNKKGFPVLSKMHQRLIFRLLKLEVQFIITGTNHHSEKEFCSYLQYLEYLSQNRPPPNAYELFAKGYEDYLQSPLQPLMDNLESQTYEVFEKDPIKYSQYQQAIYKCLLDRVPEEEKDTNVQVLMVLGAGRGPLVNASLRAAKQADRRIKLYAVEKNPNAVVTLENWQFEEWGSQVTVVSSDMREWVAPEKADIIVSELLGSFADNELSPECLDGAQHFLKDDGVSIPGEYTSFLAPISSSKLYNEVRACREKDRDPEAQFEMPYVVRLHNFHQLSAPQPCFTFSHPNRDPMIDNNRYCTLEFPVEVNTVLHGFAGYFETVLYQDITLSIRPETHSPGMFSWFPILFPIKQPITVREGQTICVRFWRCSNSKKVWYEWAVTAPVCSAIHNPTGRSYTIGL
Sequence of PRMT5/MEP50 (Q9BQA1 other isoform, or with tags, fused parts or gaps partner): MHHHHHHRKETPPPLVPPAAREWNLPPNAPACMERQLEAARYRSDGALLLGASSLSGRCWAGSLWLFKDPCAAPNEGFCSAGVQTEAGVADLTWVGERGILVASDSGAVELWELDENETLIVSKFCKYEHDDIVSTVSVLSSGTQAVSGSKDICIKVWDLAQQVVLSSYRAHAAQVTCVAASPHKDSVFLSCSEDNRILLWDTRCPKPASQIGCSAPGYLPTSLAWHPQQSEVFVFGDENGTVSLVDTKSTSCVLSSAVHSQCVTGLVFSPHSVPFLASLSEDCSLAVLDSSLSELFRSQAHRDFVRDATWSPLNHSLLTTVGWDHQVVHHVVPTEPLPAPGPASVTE

SMILES | IC50 [nM]
O[C@H](COc1cccc(CNC2CCCC2)c1)CN1CCc2ccccc2C1 [Compound 22] | 101 to 1000
O[C@@H](COc1cccc(CNC2CCCC2)c1)CN1CCc2ccccc2C1 [Compound 23] | 1000 to 10000
COc1cc2c(cc1OC)CN(CC(O)COc1cccc(CNC3CCCC3)c1)CC2 (stereo not drawn) [Compound 30] | > 40000
COc1ccc(Cn2nccc2-c2ccc(OC[C@H](O)CN3CCc4ccccc4C3)cc2)cc1 [Compound 37] | 1000 to 10000
COc1ccc(Cn2nccc2-c2ccc(OC[C@@H](O)CN3CCc4ccccc4C3)cc2)cc1 [Compound 38] | > 40000
COc1ccc(Cn2ccc(-c3ccc(OC[C@H](O)CN4CCc5ccccc5C4)cc3)n2)cc1 [Compound 41] | 1000 to 10000
COc1ccc(Cn2ccc(-c3ccc(OC[C@@H](O)CN4CCc5ccccc5C4)cc3)n2)cc1 [Compound 42] | 10000 to 40000
Cn1cnc2ccc(-c3cccc(OCC(O)CN4CCc5ccccc5C4)c3)cc21 (stereo not drawn) [Compound 45, 1-(3,4-dihydroisoquinolin-2(1H)-yl)-3-(3-(1-methyl-1H-benzo[d]imidazol-6-yl)phenoxy)propan-2-ol] | < 100
OC(COc1ccc(C2CCCNC2)cc1)CN1CCc2ccccc2C1 (stereo not drawn) [Compound 47] | < 100
CC1Cc2ccccc2CN1CC(O)COc1cccc(CNC2CCCC2)c1 (stereo not drawn) [Compound 51] | > 40000
COc1cccc2c1CCN(CC(O)COc1cccc(CNC3CCCC3)c1)C2 (stereo not drawn) [Compound 54] | > 40000
CC1CN(CC(O)COc2cccc(CNC3CCCC3)c2)Cc2ccccc21 (stereo not drawn) [Compound 56] | > 40000
CN(C)S(=O)(=O)c1cccc(-c2cccc(OCC(O)CN3CCc4ccccc4C3)c2)c1 (stereo not drawn) [Compound 61] | > 40000
OC(COc1cccc(-c2cccc3cccnc23)c1)CN1CCc2ccccc2C1 (stereo not drawn) [Compound 65, 1-(3,4-dihydroisoquinolin-2(1H)-yl)-3-(3-(quinolin-8-yl)phenoxy)propan-2-ol] | < 100
Cn1cnc2ccc(-c3cccc(NCC(O)CN4CCc5ccccc5C4)c3)cc21 (stereo not drawn) [Compound 102, 1-(3,4-dihydroisoquinolin-2(1H)-yl)-3-((3-(1-methyl-1H-benzo[d]imidazol-6-yl)phenyl)amino)propan-2-ol] | < 100
OC(COc1cccc(-c2ccc3ncn(Cc4ccccc4)c3c2)c1)CN1CCc2ccccc2C1 (stereo not drawn) [Compound 105, 1-(3-(1-benzyl-1H-benzo[d]imidazol-6-yl)phenoxy)-3-(3,4-dihydroisoquinolin-2(1H)-yl)propan-2-ol] | < 100
Cn1ncc2ccc(-c3cccc(OCC(O)CN4CCc5ccccc5C4)c3)cc21 (stereo not drawn) [Compound 106] | < 100
Cn1ncc2cc(-c3cccc(OCC(O)CN4CCc5ccccc5C4)c3)ccc21 (stereo not drawn) [Compound 108] | < 100
CN(CC(O)CN1CCc2ccccc2C1)c1cccc(CNC2CCOCC2)c1 (stereo not drawn) [Compound 116] | < 100
Cn1cnc2ccc(-c3ccnc(NCC(O)CN4CCc5ccccc5C4)c3)cc21 (stereo not drawn) [Compound 118, 1-(3,4-Dihydroisoquinolin-2(1H)-yl)-3-((4-(1-methyl-1H-benzo[d]imidazol-6-yl)pyridin-2-yl)amino)propan-2-ol] | < 100
OC(COc1cccc(-c2ccc3ncsc3c2)c1)CN1CCc2ccccc2C1 (stereo not drawn) [Compound 123, 1-(3-(benzo[d]thiazol-6-yl)phenoxy)-3-(3,4-dihydroisoquinolin-2(1H)-yl)propan-2-ol] | 101 to 1000
Cn1ccc2cnc(-c3cccc(OCC(O)CN4CCc5ccccc5C4)c3)nc21 (stereo not drawn) [Compound 141, 1-(3,4-dihydroisoquinolin-2(1H)-yl)-3-(3-(7-methyl-7H-pyrrolo[2,3-d]pyrimidin-2-yl)phenoxy)propan-2-ol] | < 100

Continued, values first:

IC50 [nM] | SMILES
> 40000 | Cn1cnc2ccc(-c3cccc(OCC(O)CN4CCc5ccccc5C4Cc4ccccc4)c3)cc21 (stereo not drawn) [Compound 143]
> 40000 | COc1cc2c(cc1OC)CN(CC(O)COc1cccc(-c3ccc4ncn(C)c4c3)c1)CC2 (stereo not drawn) [Compound 146]
101 to 1000 | Cn1cnc2ccc(-c3cccc(OC[C@@H](O)CN4CCc5ccccc5C4)c3)cc21 [Compound 173]
< 100 | Cn1cnc2ccc(-c3cccc(OC[C@H](O)CN4CCc5ccccc5C4)c3)cc21 [Compound 174]
< 100 | Cn1ccc2ccc(-c3cccc(OCC(O)CN4CCc5ccccc5C4)c3)nc21 (stereo not drawn) [Compound 176, 1-(3,4-dihydroisoquinolin-2(1H)-yl)-3-(3-(1-methyl-1H-pyrrolo[2,3-b]pyridin-6-yl)phenoxy)propan-2-ol]
> 40000 | Cn1cnc2ccc(-c3cccc(OCC(O)CN4CCc5ccccc5C4COc4ccccc4)c3)cc21 (stereo not drawn) [Compound 178]
< 100 | Cn1cnc2ccc(-c3cccc(OCC(O)CN4CCc5ccccc5C4)c3)nc21 (stereo not drawn) [Compound 189, 1-(3,4-dihydroisoquinolin-2(1H)-yl)-3-(3-(3-methyl-3H-imidazo[4,5-b]pyridin-5-yl)phenoxy)propan-2-ol]
> 40000 | CCOC(=O)C1c2ccccc2CCN1CC(O)COc1cccc(-c2ccc3ncn(C)c3c2)c1 (stereo not drawn) [Compound 193]
< 100 | Cn1cnc2ccc(-c3cncc(NCC(O)CN4CCc5ccccc5C4)c3)cc21 (stereo not drawn) [Compound 199]
> 40000 | Cn1cnc2ccc(-c3cccc(OCC(O)CN4CCc5ccccc5C4CC(N)=O)c3)cc21 (stereo not drawn) [Compound 202]
< 100 | OC(COc1cccc(-c2ccc3ncn(C4CCNC4)c3c2)c1)CN1CCc2ccccc2C1 (stereo not drawn) [Compound 209, 1-(3,4-dihydroisoquinolin-2(1H)-yl)-3-(3-(1-(pyrrolidin-3-yl)-1H-benzo[d]imidazol-6-yl)phenoxy)propan-2-ol]
< 100 | Cn1cc2ccc(-c3cccc(OCC(O)CN4CCc5ccccc5C4)c3)nc2n1 (stereo not drawn) [Compound 210, 1-(3,4-dihydroisoquinolin-2(1H)-yl)-3-(3-(2-methyl-2H-pyrazolo[3,4-b]pyridin-6-yl)phenoxy)propan-2-ol]
< 100 | CN1CC(n2cnc3ccc(-c4cccc(OCC(O)CN5CCc6ccccc6C5)c4)cc32)C1 (stereo not drawn) [Compound 218, 1-(3,4-dihydroisoquinolin-2(1H)-yl)-3-(3-(1-(1-methylazetidin-3-yl)-1H-benzo[d]imidazol-6-yl)phenoxy)propan-2-ol]
< 100 | CN1CCC(n2cnc3ccc(-c4cccc(OCC(O)CN5CCc6ccccc6C5)c4)cc32)C1 (stereo not drawn) [Compound 219]
< 100 | OC(COc1cccc(-c2ccc3ncn(C4CCNCC4)c3c2)c1)CN1CCc2ccccc2C1 (stereo not drawn) [Compound 220]
< 100 | CN1CCC(n2cnc3ccc(-c4cccc(OCC(O)CN5CCc6ccccc6C5)c4)cc32)CC1 (stereo not drawn) [Compound 221]
< 100 | OC(COc1cccc(-c2cccc3[nH]cnc23)c1)CN1CCc2ccccc2C1 (stereo not drawn) [Compound 223, 1-(3-(1H-benzo[d]imidazol-4-yl)phenoxy)-3-(3,4-dihydroisoquinolin-2(1H)-yl)propan-2-ol]
> 40000 | Cn1cnc2ccc(-c3cccc(OCC(O)CN4CCc5ccccc5C4=O)c3)cc21 (stereo not drawn) [Compound 225]
< 100 | Cn1ncc2ccc(-c3ccnc(NCC(O)CN4CCc5ccccc5C4)c3)cc21 (stereo not drawn) [Compound 226]
< 100 | Cn1ccc2ccc(-c3ccnc(NCC(O)CN4CCc5ccccc5C4)c3)cc21 (stereo not drawn) [Compound 227]
< 100 | OC(CNc1cc(-c2ccc3ncn(C4CNC4)c3c2)ccn1)CN1CCc2ccccc2C1 (stereo not drawn) [Compound 229]
< 100 | CN1CC(n2cnc3ccc(-c4ccnc(NCC(O)CN5CCc6ccccc6C5)c4)cc32)C1 (stereo not drawn) [Compound 230]
< 100 | O=C(Cn1ccc2cnc(-c3ccnc(NCC(O)CN4CCc5ccccc5C4)c3)nc21)N1CCCC1 (stereo not drawn) [Compound 233]

— patent US9777008B2, “PRMT5 inhibitors and uses thereof” (Epizyme, Inc., priority 2012, dated 2017)
